1 compound from patent USRE38825E1, “Glyphosate tolerant plants” (Monsanto Technology LLC, priority 1990, dated 2005) can be followed below.

Each structure is given as a SMILES string.

The assay addresses LBAA glyphosate oxidoreductase variant v1v2w3 (GLY84, ARG153, HIS334) (Ochrobactrum sp. G-1, UniProt D2KI28, K153R/S2A/S84G). The experiment in a line: Kinetic analysis of domain switches, clone v1v2w3. The conditions noted are these: substrate glyphosate. The format is biochemical, bacterial isolate LBAA (Pseudomonas strain LBAA). As for the experimental part: The mutagenesis procedure used was that of Mn++-poisoned PCR and the template was a linearized glyphosate oxidoreductase gene plasmid containing the synthetic glyphosate oxidoreductase gene (SEQ ID NO:8). The oligonucleotide primers used were homologous to regions in the vector and flanking the glyphosate oxidoreductase gene. The PCR conditions employed were as follows: 1 minute at 94° C., 2 minutes at 55° C., and 3 minutes at 72° C. and with 35 cycles. A 5:1 ratio of dCTP+dGTP+TTP to dATP was used. The reactions contained MnCl2 at 125, 250, 375, or 500 μM. After the reaction, the amplified product was recloned into a vector containing a weak E. coli promoter. This vector was a pBR327 derivative containing the araBAD promoter and suitable cloning sites. […] Growth rates were determined by measuring A550 over a 96 hour period. […] Protein concentrations were determined using the Bio-Rad protein dye-binding assay. […] Ten minutes was determined to be the optimal time for the enzyme assay using 10 μg lysate. […] Enzyme activity was determined from the amount of glyoxylate-DNPH adduct formed by measuring A520 against a standard of glyoxylate. […] The Km and Vmax were determined from Lineweaver Burk, Eadie-Hofstee and hyperbolic kinetic plots. […]

With `O=C(O)CNCP(=O)(O)O` [glyphosate, N-phosphonomethyl-glycine], the VmKm was found to be 0.021.
